According to patent US5498632A, “Esters of acyl carnitines with long-chain aliphatic alcohols and pharmaceutical compositions containing same having antibacterial activity” (Sigma-Tau Industrie Farmaceutiche Riunite S.p.A., priority 1992, dated 1996):
Read-outs that look alike come from different tables or passages of the source.

Legend:
Assay type in all cases: cell-based
Gram- bacterial strains = assay: Mean MIC in broth and resistant strain number, Gram- strains; settings: 18 h, read-out: Mean MIC values
Description: (§1) MICs were determined by a standard microdilution test, using serial two-fold dilutions of the substances in Mueller-Hinton broth.
(§2) The inoculum was prepared from an overnight culture in Mueller-Hinton broth matching the 0.5 Mc Farland (turbidity) standard (BRAY W. E., Clinical Laboratory Methods, 5th Ed. C. V. MOSBY, St. Louis, Mo. 1957), and was adjusted to a final concentration of 5.0×10^4 colony-forming units/ml.
(§3) Equal volumes (0.1 ml) of both bacterial suspensions and substance solutions were distributed in microtiter plates (Falcon, 96 wells, round bottom), and then placed in a humidified incubator (37° C.) for 18 hours.
(§4) Evaluation of the Minimal Inhibitory Concentration (MIC) in broth of 16 new substances for Gram- bacterial strains.
(§5) The following strains were used: Enterobacter (1), Escherichia (3), Klebsiella (3), Proteus (3); Pseudomonas (2); Salmonella (2), Serratia (1).

[1] = system: Salmonella typhimurium (D.S.); assay: MIC in broth, Gram- strains; settings: Salmonella enterica, 18 h, read-out: Minimal Inhibitory Concentration (MIC)
Description: as §1, §2, §3, §4, §5

[2] = system: Pseudomonas aeruginosa (3 E); assay: MIC in broth, Gram- strains; settings: 18 h, read-out: Minimal Inhibitory Concentration (MIC)
Description: as §1, §2, §3, §4, §5

[3] = system: Pseudomonas aeruginosa (10 E); assay: MIC in broth, Gram- strains; settings: 18 h, read-out: Minimal Inhibitory Concentration (MIC)
Description: as §1, §2, §3, §4, §5

Escherichia coli (R 57B) = assay: MIC in broth, Gram- strains; settings: 18 h, E. coli (R 57B), read-out: Minimal Inhibitory Concentration (MIC)
Description: as §1, §2, §3, §4, §5

Proteus mirabilis (32) = assay: MIC in broth, Gram- strains; settings: 18 h, read-out: Minimal Inhibitory Concentration (MIC)
Description: as §1, §2, §3, §4, §5

Escherichia coli (92 F) = assay: MIC in broth, Gram- strains; settings: 18 h, E. coli (92 F), read-out: Minimal Inhibitory Concentration (MIC)
Description: as §1, §2, §3, §4, §5

[4] = system: Enterobacter aerogenes (UM); assay: MIC in broth, Gram- strains; settings: Klebsiella aerogenes, 18 h, read-out: Minimal Inhibitory Concentration (MIC)
Description: as §1, §2, §3, §4, §5

Klebsiella oxytoca (552) = assay: MIC in broth, Gram- strains; settings: 18 h, read-out: Minimal Inhibitory Concentration (MIC)
Description: as §1, §2, §3, §4, §5

Proteus morganii (D.S.) = assay: MIC in broth, Gram- strains; settings: Morganella morganii, 18 h, read-out: Minimal Inhibitory Concentration (MIC)
Description: as §1, §2, §3, §4, §5

Salmonella typhi (J) = assay: MIC in broth, Gram- strains; settings: Salmonella enterica, 18 h, read-out: Minimal Inhibitory Concentration (MIC)
Description: as §1, §2, §3, §4, §5

Proteus vulgaris (UM) = assay: MIC in broth, Gram- strains; settings: 18 h, read-out: Minimal Inhibitory Concentration (MIC)
Description: as §1, §2, §3, §4, §5

[5] = system: Klebsiella pneumoniae (7823); assay: MIC in broth, Gram- strains; settings: 18 h, read-out: Minimal Inhibitory Concentration (MIC)
Description: as §1, §2, §3, §4, §5

[6] = system: Klebsiella aerogenes (SH 1082); assay: MIC in broth, Gram- strains; settings: 18 h, read-out: Minimal Inhibitory Concentration (MIC)
Description: as §1, §2, §3, §4, §5

[7] = system: Bacillus pumilus (CN 607); assay: MIC in broth, Gram+ strains; settings: B. pumilus (CN 607), Mueller-Hinton broth, 37° C., 18 hours, read-out: Minimal Inhibitory Concentration (MIC)
Description: (§6) Evaluation of the Minimal Inhibitory Concentration (MIC) in broth of 15 new substances for Gram+ bacterial strains.
(§7) The following strains were used: Staphylococcus aureus (4); Streptococcus faecalis (8); Bacillus pumilus (1); Bacillus subtilis (1).
as §1, §2, §3
(§8) The results, in terms of MIC values, resistant strain number and mean MIC values versus susceptible strains, are illustrated in Tables 1-6.

[8] = system: Streptococcus faecalis (516); assay: MIC in broth, Gram+ strains; settings: Enterococcus faecalis; S. faecalis (516), Mueller-Hinton broth, 37° C., 18 hours; read-out: Minimal Inhibitory Concentration (MIC)
Description: as §6, §7, §1, §2, §3, §8

[9] = system: Streptococcus faecalis (509); assay: MIC in broth, Gram+ strains; settings: Enterococcus faecalis; S. faecalis (509), Mueller-Hinton broth, 37° C., 18 hours; read-out: Minimal Inhibitory Concentration (MIC)
Description: as §6, §7, §1, §2, §3, §8

[10] = system: Streptococcus faecalis (UM); assay: MIC in broth, Gram+ strains; settings: Enterococcus faecalis; S. faecalis (UM), Mueller-Hinton broth, 37° C., 18 hours; read-out: Minimal Inhibitory Concentration (MIC)
Description: as §6, §7, §1, §2, §3, §8

[11] = system: Streptococcus faecalis (R 2); assay: MIC in broth, Gram+ strains; settings: Enterococcus faecalis; S. faecalis (R 2), Mueller-Hinton broth, 37° C., 18 hours; read-out: Minimal Inhibitory Concentration (MIC)
Description: as §6, §7, §1, §2, §3, §8

[12] = system: Bacillus subtilis (ATCC 6051); assay: MIC in broth, Gram+ strains; settings: ATCC6051, B. subtilis (ATCC 6051), Mueller-Hinton broth, 37° C., 18 hours, read-out: Minimal Inhibitory Concentration (MIC)
Description: as §6, §7, §1, §2, §3, §8

[13] = system: Staphylococcus aureus (ATCC 14154); assay: MIC in broth, Gram+ strains; settings: ATCC14154, S. aureus (ATCC 14154), Mueller-Hinton broth, 37° C., 18 hours, read-out: Minimal Inhibitory Concentration (MIC)
Description: as §6, §7, §1, §2, §3, §8

[14] = system: Streptococcus faecalis (501); assay: MIC in broth, Gram+ strains; settings: Enterococcus faecalis; S. faecalis (501), Mueller-Hinton broth, 37° C., 18 hours; read-out: Minimal Inhibitory Concentration (MIC)
Description: as §6, §7, §1, §2, §3, §8

[15] = system: Streptococcus faecalis (505); assay: MIC in broth, Gram+ strains; settings: Enterococcus faecalis; S. faecalis (505), Mueller-Hinton broth, 37° C., 18 hours; read-out: Minimal Inhibitory Concentration (MIC)
Description: as §6, §7, §1, §2, §3, §8

[16] = system: Staphylococcus aureus (LC1); assay: MIC in broth, Gram+ strains; settings: S. aureus (LC1), Mueller-Hinton broth, 37° C., 18 hours, read-out: Minimal Inhibitory Concentration (MIC)
Description: as §6, §7, §1, §2, §3, §8

[17] = system: Staphylococcus aureus (303); assay: MIC in broth, Gram+ strains; settings: S. aureus (303), Mueller-Hinton broth, 37° C., 18 hours, read-out: Minimal Inhibitory Concentration (MIC)
Description: as §6, §7, §1, §2, §3, §8

[18] = system: Streptococcus faecalis (519); assay: MIC in broth, Gram+ strains; settings: Enterococcus faecalis; S. faecalis (519), Mueller-Hinton broth, 37° C., 18 hours; read-out: Minimal Inhibitory Concentration (MIC)
Description: as §6, §7, §1, §2, §3, §8

[19] = system: Streptococcus faecalis (518); assay: MIC in broth, Gram+ strains; settings: Enterococcus faecalis; S. faecalis (518), Mueller-Hinton broth, 37° C., 18 hours; read-out: Minimal Inhibitory Concentration (MIC)
Description: as §6, §7, §1, §2, §3, §8

Gram+ bacterial strains = assay: Mean MIC in broth and resistant strain number, Gram+ strains; settings: 18 h, versus susceptible strains
Description: as §6, §7, §1, §2, §3, §8

[20] = system: Staphylococcus aureus (306 MR); assay: MIC in broth, Gram+ strains; settings: S. aureus (306 MR), Mueller-Hinton broth, 37° C., 18 hours, read-out: Minimal Inhibitory Concentration (MIC)
Description: as §6, §7, §1, §2, §3, §8

| SMILES | MIC [1] | MIC [2] | MIC [3] | MIC (Escherichia coli (R 57B)) | MIC (Proteus mirabilis (32)) | MIC (Escherichia coli (92 F)) | MIC (Klebsiella oxytoca (552)) | MIC (Proteus morganii (D.S.)) | MIC (Salmonella typhi (J)) | MIC (Proteus vulgaris (UM)) | MIC [5] | MIC [6] | MIC [7] | MIC [8] | MIC [9] | MIC [10] | MIC [11] | MIC [12] | MIC [13] | MIC [14] | other results |
| --- | --- | --- | --- | --- | --- | --- | --- | --- | --- | --- | --- | --- | --- | --- | --- | --- | --- | --- | --- | --- | --- |
| CCCCCCCCCCCCOC(=O)CC(C[N+](C)(C)C)OC(=O)C(C)C (stereo not drawn) [ST 1038] | 25 µg/mL | 100 µg/mL | 100 µg/mL | 100 µg/mL | > 100 µg/mL | 25 µg/mL | 25 µg/mL | 100 µg/mL | 25 µg/mL | 100 µg/mL | 25 µg/mL | 50 µg/mL | 3.12 µg/mL | 3.12 µg/mL | 3.12 µg/mL | 3.12 µg/mL | 3.12 µg/mL | 6.25 µg/mL | 3.12 µg/mL | 3.12 µg/mL | MIC (Gram- bacterial strains): 41.7 µg/mL; MIC [4]: 25 µg/mL; MIC [15]: 3.12 µg/mL; MIC [16]: 1.56 µg/mL; MIC [17]: 6.25 µg/mL; MIC [18]: 3.12 µg/mL; MIC [19]: 3.12 µg/mL; MIC (Gram+ bacterial strains): 3.48 µg/mL |
| CCCCCCCCCCCOC(=O)CC(C[N+](C)(C)C)OC(=O)CCCCCC (stereo not drawn) [ST 1036] | > 100 µg/mL | 100 µg/mL | > 100 µg/mL | > 100 µg/mL | > 100 µg/mL | 25 µg/mL | 50 µg/mL | > 100 µg/mL | 25 µg/mL | > 100 µg/mL | 12.5 µg/mL | 100 µg/mL | 1.56 µg/mL | 3.12 µg/mL | 1.56 µg/mL | 1.56 µg/mL | 3.12 µg/mL | 3.12 µg/mL | 3.12 µg/mL | 1.56 µg/mL | MIC (Gram- bacterial strains): 60.7 µg/mL; MIC [20]: 3.12 µg/mL; MIC [15]: 1.56 µg/mL; MIC [16]: 1.56 µg/mL; MIC [17]: 3.12 µg/mL; MIC [18]: 3.12 µg/mL; MIC [19]: 3.12 µg/mL; MIC (Gram+ bacterial strains): 2.45 µg/mL |
| CCCCCCCCCCCOC(=O)CC(C[N+](C)(C)C)OC(=O)CCC(C)C (stereo not drawn) [ST 1034] | 100 µg/mL | 50 µg/mL | 50 µg/mL | 50 µg/mL | > 100 µg/mL | 25 µg/mL | 12.5 µg/mL | 100 µg/mL | 25 µg/mL | > 100 µg/mL | 12.5 µg/mL | 25 µg/mL | 1.56 µg/mL | 1.56 µg/mL | 1.56 µg/mL | 1.56 µg/mL | 1.56 µg/mL | 3.12 µg/mL | 3.12 µg/mL | 1.56 µg/mL | MIC (Gram- bacterial strains; Gram- strains, versus susceptible strains): 45 µg/mL; MIC [20]: 3.12 µg/mL; MIC [15]: 1.56 µg/mL; MIC [16]: 1.56 µg/mL; MIC [17]: 3.12 µg/mL; MIC [18]: 1.56 µg/mL; MIC [19]: 1.56 µg/mL; MIC (Gram+ bacterial strains): 2 µg/mL |
